The data set can be described thus: log p (partition coefficient octanol/water, determined experimentally from reversed phase HPLC). Format: physicochemical. The conditions noted are these: for chromatographic logP: reversed phase hplc. From the text:
[log p=logarithm of the partition coefficient p of the substance between the solvents octanol and water, determined experimentally from reversed phase HPLC]

Like-named read-outs stand apart in the source and are kept apart here.

With `CON=C(C)COc1ccc(-c2ccc(C3COC(c4c(F)cccc4F)=N3)cc2)cc1Cl` (stereo not drawn) [Example 86], the chromatographic logP (as a rule, lipophilicity estimated from chromatographic retention) runs as follows: (A isomer) 4.79; (B isomer) 4.7.

Compound `CON=C(C)C(C)(C)Oc1ccc(-c2ccc(C3COC(c4c(F)cccc4F)=N3)cc2)cc1` (stereo not drawn) [Example 100] registered a chromatographic logP of 5.14.

Take `CC(=O)C(C)(C)Oc1ccc(-c2ccc(C3COC(c4ccccc4Cl)=N3)cc2)cc1` (stereo not drawn) [Example 152]: the chromatographic logP stood at 4.56.

As for `C=CCN(CC=C)C(=O)COc1ccc(-c2ccc(C3COC(c4c(F)cccc4F)=N3)cc2)cc1` (stereo not drawn) [Example 47], the chromatographic logP was found to be 3.76.

Compound `CON=C(COc1ccc(-c2ccc(C3COC(c4c(F)cccc4F)=N3)cc2)cc1)c1ccc(C(F)(F)F)cc1` (stereo not drawn) [Example 111] registered a chromatographic logP of 5.53.

As to `CCON=C(COc1ccc(-c2ccc(C3COC(c4c(F)cccc4F)=N3)cc2)cc1)c1cccc(Cl)c1` (stereo not drawn) [Example 116], the chromatographic logP runs as follows: (A isomer) 5.89; (B isomer) 5.54.

For `CC(=O)C(C)Oc1ccc(-c2ccc(C3COC(c4c(F)cccc4F)=N3)cc2)cc1Cl` (stereo not drawn) [Example 101], the chromatographic logP was found to be 4.15.

For the compound `C=CCON=C(C)COc1ccc(-c2ccc(C3COC(c4c(F)cccc4F)=N3)cc2)cc1` (stereo not drawn) [Example 89], the chromatographic logP by setting is: (A isomer) 4.78; (B isomer) 4.72.

`CCOC(CCOc1ccc(-c2ccc(C3COC(c4c(F)cccc4F)=N3)cc2)cc1Cl)OCC` (stereo not drawn) [Example 97]: the chromatographic logP was 5.12.

Turning to `CON=C(COc1ccc(-c2ccc(C3COC(c4c(F)cccc4F)=N3)cc2)cc1)c1ccc(Cl)c(C)c1` (stereo not drawn) [Example 140], the chromatographic logP (A isomer) stood at 5.57 and the chromatographic logP (B isomer) was determined as 5.88.

In turn, `CC(=NO)C(C)Oc1ccc(-c2ccc(C3COC(c4c(F)cccc4F)=N3)cc2)cc1` (stereo not drawn) [Example 64] returned a chromatographic logP (A isomer) of 3.48 and a chromatographic logP (B isomer) of 3.54.

As to `CCON=C(COc1ccc(-c2ccc(C3COC(c4c(F)cccc4F)=N3)cc2)cc1)c1ccc(C(F)F)cc1` (stereo not drawn) [Example 139], the chromatographic logP (A isomer) came out at 5.07 and the chromatographic logP (B isomer) amounted to 5.31.

In the case of `CC(COc1ccc(-c2ccc(C3COC(c4c(F)cccc4Cl)=N3)cc2)cc1)=NOCc1ccccc1` (stereo not drawn) [Example 126], the chromatographic logP came to 5.45 (A isomer) and 5.53 (B isomer).

Turning to `CON=C(C)C(C)Oc1ccc(-c2ccc(C3COC(c4c(F)cccc4F)=N3)cc2)cc1Cl` (stereo not drawn) [Example 127], the chromatographic logP (A isomer) amounted to 5.06 and the chromatographic logP (B isomer) came to 5.15.

For the compound `CC(=NO)C(C)(C)Oc1ccc(-c2ccc(C3COC(c4c(F)cccc4F)=N3)cc2)cc1` (stereo not drawn) [Example 167], the chromatographic logP by setting is: (A isomer) 3.82; (B isomer) 3.39.

`CCON=C(COc1ccc(-c2ccc(C3COC(c4c(F)cccc4F)=N3)cc2)cc1)c1ccc(OC(F)(F)C(F)F)cc1` (stereo not drawn) [Example 158]: the chromatographic logP runs as follows: (A isomer) 5.59; (B isomer) 5.35.

For the compound `CCON=C(C)COc1ccc(-c2ccc(C3COC(c4c(F)cccc4F)=N3)cc2)cc1` (stereo not drawn) [Example 25], under “B isomer”, the chromatographic logP is 4.76.

Consider `CON=C(COc1ccc(-c2ccc(C3COC(c4c(F)cccc4F)=N3)cc2)cc1)c1cc(Cl)ccc1Cl` (stereo not drawn) [Example 191], for which the chromatographic logP stood at 5.62 (A isomer) and 5.44 (B isomer).

Compound `Cc1cc(C(=O)COc2ccc(-c3ccc(C4COC(c5c(F)cccc5F)=N4)cc3)cc2)ccc1Cl` (stereo not drawn) [Example 117] had a chromatographic logP of 4.86.

Consider `CON=C(COc1ccc(-c2ccc(C3COC(c4ccccc4Cl)=N3)cc2)cc1)c1ccccc1` (stereo not drawn) [Example 52], for which the chromatographic logP stood at 5.4.

`CCON=C(COc1ccc(-c2ccc(C3COC(c4c(F)cccc4F)=N3)cc2)cc1)c1ccc(OC)cc1` (stereo not drawn) [Example 150]: the chromatographic logP worked out at 5.04 (A isomer) and 5.27 (B isomer).

Compound `CC(=O)C(C)(C)Oc1ccc(-c2ccc(C3COC(c4c(F)cccc4Cl)=N3)cc2)cc1` (stereo not drawn) [Example 151] gave a chromatographic logP of 4.48.

As to `CCCCC(Oc1ccc(-c2ccc(C3COC(c4c(F)cccc4F)=N3)cc2)cc1)C(=O)OCC` (stereo not drawn) [Example 61], the chromatographic logP came out at 5.24.

`CCOC(=O)C(C)Oc1ccc(-c2ccc(C3COC(c4c(F)cccc4F)=N3)cc2)cc1` (stereo not drawn) [Example 12] had a log p of 3.80.

The compound `CCON=C(C)C(C)(C)Oc1ccc(-c2ccc(C3COC(c4c(F)cccc4F)=N3)cc2)cc1` (stereo not drawn) [Example 99] gave a chromatographic logP of 5.57.

`CCON=C(C)COc1ccc(-c2ccc(C3COC(c4c(F)cccc4F)=N3)cc2)cc1Cl` (stereo not drawn) [Example 87]: the chromatographic logP (A isomer) was found to be 5.39 and the chromatographic logP (B isomer) is 5.19.

Take `CCON=C(COc1ccc(-c2ccc(C3COC(c4c(F)cccc4F)=N3)cc2)cc1)C1CC1` (stereo not drawn) [Example 56]: the chromatographic logP by setting is: (A isomer) 5.28; (B isomer) 4.92.

`CCON=C(C)C(C)(C)Oc1ccc(-c2ccc(C3COC(c4ccccc4Cl)=N3)cc2)cc1Cl` (stereo not drawn) [Example 176]: the chromatographic logP was 6.49.

As to `CCON=C(COc1ccc(-c2ccc(C3COC(c4c(F)cccc4F)=N3)cc2)cc1)c1ccc(CC(C)C)cc1` (stereo not drawn) [Example 155], the chromatographic logP was found to be 6.7 (A isomer) and 6.36 (B isomer).

Compound `CCON=C(COc1ccc(-c2ccc(C3COC(c4c(F)cccc4F)=N3)cc2)cc1)c1ccc(Br)cc1` (stereo not drawn) [Example 119] came in with a log p (A isomer) of 6.03 and a log p (B isomer) of 5.72.

For `CCON=C(COc1ccc(-c2ccc(C3COC(c4c(F)cccc4F)=N3)cc2)cc1)C1(Cl)CC1` (stereo not drawn) [Example 57], the chromatographic logP amounted to 5.49 (A isomer) and 4.85 (B isomer).

`CON=C(C)C(C)(C)Oc1ccc(-c2ccc(C3COC(c4c(F)cccc4Cl)=N3)cc2)cc1` (stereo not drawn) [Example 160] had a chromatographic logP of 5.45.

As to `CC(COc1ccc(-c2ccc(C3COC(c4c(F)cccc4F)=N3)cc2)cc1)=NOCc1ccccc1` (stereo not drawn) [Example 82], under “A isomer”, the chromatographic logP was 5.15.

`CCON=C(C)COc1ccc(-c2ccc(C3COC(c4c(F)cccc4F)=N3)cc2)cc1` (stereo not drawn) [Example 83] registered a log p (B isomer) of 5.56. Under “A isomer”, this compound registered a chromatographic logP of 5.49.

Consider `CCON=C(CC)COc1ccc(-c2ccc(C3COC(c4c(F)cccc4F)=N3)cc2)cc1` (stereo not drawn) [Example 66], for which the chromatographic logP runs as follows: (A isomer) 4.98; (B isomer) 4.9.

`CON=C(COc1ccc(-c2ccc(C3COC(c4c(F)cccc4F)=N3)cc2)cc1)C1(Cl)CC1` (stereo not drawn) [Example 55]: the chromatographic logP runs as follows: (A isomer) 5.09; (B isomer) 4.78.

Turning to `C=CCON=C(C)C(C)Oc1ccc(-c2ccc(C3COC(c4c(F)cccc4F)=N3)cc2)cc1` (stereo not drawn) [Example 88], the chromatographic logP was determined as 5.04 (A isomer) and 5.13 (B isomer).

Turning to `CC(=NOC(C)C)C(C)Oc1ccc(-c2ccc(C3COC(c4ccccc4Cl)=N3)cc2)cc1` (stereo not drawn) [Example 136], the chromatographic logP reads like this: (A isomer) 5.88; (B isomer) 6.02.

`CC(C)(C(=O)COc1ccc(-c2ccc(C3COC(c4c(F)cccc4F)=N3)cc2)cc1)C(Cl)Cl` (stereo not drawn) [Example 71] yielded a chromatographic logP of 4.55.

`CC(COc1ccc(-c2ccc(C3COC(c4c(F)cccc4F)=N3)cc2)cc1)=NOC(C)C` (stereo not drawn) [Example 80]: the chromatographic logP is 5.1 (A isomer) and 5.17 (B isomer).

As to `C=CCON=C(C)C(C)Oc1ccc(-c2ccc(C3COC(c4c(F)cccc4F)=N3)cc2)cc1Cl` (stereo not drawn) [Example 147], the chromatographic logP reads like this: (A isomer) 5.49; (B isomer) 5.58.

For `O=C(COc1ccc(-c2ccc(C3COC(c4ccccc4Cl)=N3)cc2)cc1)c1ccccc1` (stereo not drawn) [Example 49], the chromatographic logP came out at 4.38.

Take `CCON=C(COc1ccc(-c2ccc(C3COC(c4c(F)cccc4F)=N3)cc2)cc1)C(C)C` (stereo not drawn) [Example 78]: the chromatographic logP by setting is: (A isomer) 5.72; (B isomer) 5.49.

`CON=C(c1cccc(C(F)(F)F)c1)C(C)Oc1ccc(-c2ccc(C3COC(c4c(F)cccc4F)=N3)cc2)cc1` (stereo not drawn) [Example 106] came in with a chromatographic logP of 5.5.

`CON=C(COc1ccc(-c2ccc(C3COC(c4c(F)cccc4F)=N3)cc2)cc1)C1CC1` (stereo not drawn) [Example 26]: the chromatographic logP reads like this: (A isomer) 4.9; (B isomer) 4.56.

On to `C=CCON=C(C)C(C)Oc1ccc(-c2ccc(C3COC(c4ccccc4Cl)=N3)cc2)cc1` (stereo not drawn) [Example 143], for which the chromatographic logP runs as follows: (A isomer) 5.45; (B isomer) 5.57.

With `CCON=C(COc1ccc(-c2ccc(C3COC(c4c(F)cccc4F)=N3)cc2)cc1)C1CC1` (stereo not drawn) [Example 67], the log p is, setting by setting: (A isomer) 4.72; (B isomer) 4.61.

Regarding `CON=C(COc1ccc(-c2ccc(C3COC(c4c(F)cccc4F)=N3)cc2)cc1)c1ccc(C(F)F)cc1` (stereo not drawn) [Example 138], the chromatographic logP reads like this: (A isomer) 4.78; (B isomer) 4.98.

Consider `CC(=NOC(C)C)C(C)Oc1ccc(-c2ccc(C3COC(c4c(F)cccc4Cl)=N3)cc2)cc1` (stereo not drawn) [Example 123], for which the chromatographic logP was determined as 6.15 (A isomer) and 6.3 (B isomer).

With `CCON=C(COc1ccc(-c2ccc(C3COC(c4c(F)cccc4F)=N3)cc2)cc1)c1ccc(Br)cc1` (stereo not drawn) [Example 118], the chromatographic logP runs as follows: (A isomer) 5.65; (B isomer) 5.57.

Take `CCON=C(COc1ccc(-c2ccc(C3COC(c4c(F)cccc4F)=N3)cc2)cc1)c1ccc(Cl)c(C)c1` (stereo not drawn) [Example 141]: the chromatographic logP by setting is: (A isomer) 5.93; (B isomer) 6.23.

With `O=C(COc1ccc(-c2ccc(C3COC(c4c(F)cccc4Cl)=N3)cc2)cc1)c1ccccc1` (stereo not drawn) [Example 93], the chromatographic logP came out at 4.28.

With `CON=C(COc1ccc(-c2ccc(C3COC(c4c(F)cccc4F)=N3)cc2)cc1)c1ccc(CC(C)C)cc1` (stereo not drawn) [Example 154], the chromatographic logP turned out to be 6.34 (A isomer) and 6.05 (B isomer).

Take `CCON=C(COc1ccc(-c2ccc(C3COC(c4c(F)cccc4F)=N3)cc2)cc1)c1cccc(C(F)(F)F)c1` (stereo not drawn) [Example 122]: the chromatographic logP by setting is: (A isomer) 6.18; (B isomer) 5.87.

Regarding `CCON=C(COc1ccc(-c2ccc(C3COC(c4c(F)cccc4F)=N3)cc2)cc1)c1cc(Cl)ccc1Cl` (stereo not drawn) [Example 192], the chromatographic logP is, setting by setting: (A isomer) 6; (B isomer) 5.79.

Source of the values: US6211214A, “Biphenyl ether oxazolines and their use as pest-control agents” (Bayer Aktiengesellschaft, priority 1995, dated 2001).
